Measured values as given in patent US20260258050A1, “IMMUNOMODULATOR” (HITGEN INC., priority 2023, published 2026).

Biological target: T1, Human IL-17A (Homo sapiens, UniProt Q16552)
T1 sequence (Q16552 20-155 limits assumed): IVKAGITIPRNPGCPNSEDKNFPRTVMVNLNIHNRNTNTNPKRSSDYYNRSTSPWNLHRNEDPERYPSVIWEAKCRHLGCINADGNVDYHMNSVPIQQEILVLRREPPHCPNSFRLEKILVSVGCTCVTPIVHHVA
Assay: Inhibition of human IL-17A protein-induced GROα/CXCL1 production in HT-29 cells
Assay type: cell-based
Design: purchased R&D 317-ILB; host or cells: added exogenously to HT-29 cells
Details: 30 ng/mL human IL-17A protein, 48 h, GROα in supernatant by ELISA kit, read-out: Inhibitory IC50 of compounds on HT-29 cell GROα/CXCL1
Description: Experiment Example 3 Inhibition of Human IL-17A Protein-Induced GROα/CXCL1 Production in HT-29 Cells by Compounds
This assay was conducted to evaluate the ability of the compounds to inhibit human IL-17A protein-induced production of the chemokine growth-regulated oncogene alpha/C-X-C motif chemokine ligand 1 (GROα/CXCL1) in HT-29 cells.
Human colorectal adenocarcinoma epithelial HT-29 cells (Chengdu Zhongyuan Gongchuang Technology Co., Ltd.) were seeded into a 96-well plate at a density of 5×10^4 cells per well and were cultured overnight in an incubator at 37° C.
30 ng/mL of human IL-17A protein (R&D, #317-ILB) was mixed with gradient concentrations of the IL-17A small-molecule inhibitor, or with […] of a positive control IL-17A antibody (R&D, #AF-317-NA). These mixtures were incubated at 37° C. for 1 h and were then added to the plate. The mixtures were co-incubated with the HT-29 cells at 37° C. for 48 h. Thereafter, the level of GROα in the cell culture supernatant was determined using a GROα ELISA kit (Cisbio, #62HCXC1PEG).
The inhibitory activity of each compound was expressed as the half-maximal inhibitory concentration (IC50) for inhibition of GROα/CXCL1 production in HT-29 cells.

Cc1[nH]nc2c1-c1cc(F)c(NC(=O)[C@@H](NC(=O)c3ccnn3C(C)C)C(C3CC3)C3CC3)cc1C(=O)NC(C)C2 (single isomer, unassigned) [compound 187a] and Cc1c2c(nn1COCC[Si](C)(C)C)CC(=O)N(Cc1ccccc1)Cc1cc(N)c(F)cc1-2 [compound 183] cannot be ordered by IC50: no more than 100 nM for the first, 100 to 500 nM for the second.

In the case of Cc1[nH]nc2c1-c1cc(F)c(NC(=O)[C@@H](NC(=O)c3ccnn3C(C)C)C(C3CC3)C3CC3)cc1C(=O)NC(C)C2 (single isomer, unassigned) [compound 187b], the IC50 is reported as no more than 100 nM.

Biological target: T1, Human IL-17A
Assay: IL-17A enzyme-linked immunosorbent assay (competitive ELISA, IL-17A/IL-17Ra receptor-ligand binding)
Design: purchased Sino Biological Inc. 12047-H07B
Details: human IL-17A coated plate, human IL-17Ra, read-out: IC50, inhibitory activity of compounds on human IL-17A
Description: Experimental Example 1 IL-17A Enzyme-Linked Immunosorbent Assay (ELISA)
The inhibitory effects of human IL-17A inhibitors on receptor-ligand binding were quantitatively determined by a competitive enzyme-linked immunosorbent assay (ELISA). The ELISA was performed through the following steps.
Human IL-17A (Sino Biological Inc., Cat #12047-H07B) was diluted with coating buffer (50 mM phosphate-buffered saline (PBS), pH 7.4) to give an IL-17A concentration of 0.2 μg/ml. 100 μL of the resulting solution was added to each well of a 96-well plate, and the plate was incubated at 37° C. for 30 min. In a blank group, 100 100 μL of the coating buffer was added instead of the IL-17A solution.
The plate was washed four times with 10 mM phosphate-buffered saline containing 0.05% Tween-20 (PBST, pH 7.4). 200 μL of PBST was used per well for each wash. After the final wash, the plate was tapped dry on absorbent paper.
Fresh 5% (w/v) skim milk solution was prepared before the experiment. For example, 5 g of skim milk powder (Bio-Rad, 170-6404) was completely dissolved in 100 mL of 10 mM PBST. 200 μL of the 5% (w/v) skim milk solution was added to each well, and the plate was incubated on a shaker at 25° C. for 30 min.
(S4) Preparation of 100× to-be-Tested Compound Solutions
During step (S3), the to-be-tested compound solutions were prepared, respectively. Each powdered compound was dissolved in dimethyl sulfoxide (DMSO) to reach a storage concentration of 10 mM. The to-be-tested compound solutions were then serially diluted four-fold with DMSO to obtain nine storage concentrations ranging from […].
(S6) Pre-incubation of IL-17A with to-be-tested compound solutions
89 μL of PBST and 1 μL of each of the to-be-tested compound solutions were added to each well and mixed. The plate was pre-incubated at 25° C. for 10 min. In the blank group and the control group, 1 μL of DMSO was added instead of the to-be-tested compound solutions.
(S7) Incubation with Human Interleukin-17 Receptor a (IL-17Ra)
10 μL of 16 nM human IL-17Ra (Sino Biological Inc., Cat #10895-H03H) was added, followed by incubation on a shaker at 25° C. for 30 min. The receptor solution was prepared in 10 mM PBST.
(S9) Incubation with Horseradish Peroxidase-Conjugated Antibody
100 μL of mouse anti-Fc tag horseradish peroxidase (HRP)-conjugated antibody (Sino Biological Inc., Cat #10702-MM01T-H) was added to each well. The plate was incubated on a shaker at 25° C. for 30 min. The antibody was diluted with 5% (w/v) skim milk solution at 1:5,000 (v/v).
100 μL of 3,3′,5,5′-tetramethylbenzidine (TMB) substrate solution (BD, Cat #555214) was added to each well. Substrate A and substrate B were freshly mixed at a volume ratio of 1:1 before use. The plate was incubated in the dark at 25° C. for 5-15 min.
(S12) Termination and Detection
The color reaction was terminated by addition of 2.5 M hydrochloric acid (HCl). Absorbance was measured at 450 nm using a BMG PHERStar microplate reader.
(S13) Calculation of Half-Maximal Inhibitory Concentration (IC50)
The relative percent residual activity at each compound concentration was calculated according to Equation 1. The IC50 value of each test compound was then calculated in GraphPad 6 using the equation for log(inhibitor) versus normalized response with variable slope, as shown in Equation 2.
relative percent residual activity (%)=[(absorbance of sample−absorbance of blank group)/(absorbance of control group−absorbance of blank group)]%. Equation 1: […]
The compounds prepared in the above examples were tested for IL-17A inhibitory activity according to the above method.

Cc1[nH]nc2c1-c1cnc(NC(=O)[C@@H](NC(=O)c3ccnn3C(C)C)C(C3CC3)C3CC3)cc1CN(C1(C(F)(F)F)CC1)CC2 [compound 212] and Cc1[nH]nc2c1-c1cnc(NC(=O)[C@@H](NC(=O)c3ccnn3C(C)C)C(C3CC3)C3CC3)cc1CN(C1(C(F)(F)F)CC1)C(=O)C2 [compound 208] cannot be ordered by IC50: no more than 50 nM for the first, no more than 50 nM for the second.

Cc1[nH]nc2c1-c1cc(F)c(NC(=O)[C@@H](NC(=O)c3ccnn3CCCO)C(C3CC3)C3CC3)cc1COCC2 [compound 56] and Cc1[nH]nc2c1-c1cc(F)c(NC(=O)[C@@H](NC(=O)c3ccnn3CCS(C)(=O)=O)C(C3CC3)C3CC3)cc1COCC2 [compound 63] cannot be ordered by IC50: no more than 50 nM for the first, no more than 50 nM for the second.

Cc1[nH]nc2c1-c1cc(F)c(NC(=O)[C@@H](NC(=O)c3ccnn3CC(C)(C)C#N)C(C3CC3)C3CC3)cc1COCC2 [compound 77] and CO[C@@H](C)Cn1nccc1C(=O)N[C@H](C(=O)Nc1cc2c(cc1F)-c1c(n[nH]c1C)CCOC2)C(C1CC1)C1CC1 [compound 78] cannot be ordered by IC50: 50 to 150 nM for the first, no more than 50 nM for the second.

Cc1[nH]nc2c1-c1cnc(NC(=O)[C@@H](NC(=O)OC3CCC3)C(C3CC3)C3CC3)cc1COCC2 [compound 247] and Cc1[nH]nc2c1-c1cnc(NC(=O)[C@@H](NC(=O)c3cnnn3C(C)C)C(C3CC3)C3CC3)cc1COCC2 [compound 243] cannot be ordered by IC50: 50 to 150 nM for the first, no more than 50 nM for the second.

Cc1[nH]nc2c1-c1cnc(NC(=O)C(NC(=O)c3conc3C(C)C)C(C3CC3)C3CC3)cc1CN(C(C)C(F)(F)F)C(=O)C2 (racemic) [compound 225] and Cc1[nH]nc2c1-c1cc(F)c(NC(=O)[C@@H](NC(=O)c3conc3C(C)C)C(C3CC3)C3CC3)cc1CN(C(C)C(F)(F)F)C(=O)C2 (mixture of isomers) [compound 248] cannot be ordered by IC50: no more than 50 nM for the first, no more than 50 nM for the second.

CCc1nonc1C(=O)N[C@H](C(=O)Nc1ccc2c(c1)COCCc1n[nH]c(C)c1-2)C(C1CC1)C1CC1 [compound 5] and Cc1[nH]nc2c1-c1cc(F)c(NC(=O)[C@@H](NC(=O)c3ccnn3C(C)C[S+](C)[O-])C(C3CC3)C3CC3)cc1COCC2 (single isomer, unassigned) [compound 43a] cannot be ordered by IC50: no more than 50 nM for the first, 50 to 150 nM for the second.

Cc1[nH]nc2c1-c1cc(F)c(NC(=O)[C@@H](NC(=O)/C(F)=C\C3CC3)C(C3CC3)C3CC3)cc1CN(C(C)C(F)(F)F)C(=O)C2 (mixture of isomers) [compound 251] and C=C(F)C(=O)N[C@H](C(=O)Nc1cc2c(cc1F)-c1c(n[nH]c1C)CC(=O)N(C(C)C(F)(F)F)C2)C(C1CC1)C1CC1 (mixture of isomers) [compound 253] cannot be ordered by IC50: no more than 50 nM for the first, no more than 50 nM for the second.

Cc1[nH]nc2c1-c1cnc(NC(=O)[C@@H](NC(=O)/C(F)=C\C3CC3)C(C3CC3)C3CC3)cc1CN(C1CC1)CC2 [compound 221] and Cc1[nH]nc2c1-c1cnc(NC(=O)[C@@H](NC(=O)/C(F)=C\C(C)C)C(C3CC3)C3CC3)cc1CN(C1CC1)CC2 [compound 222] cannot be ordered by IC50: no more than 50 nM for the first, no more than 50 nM for the second.

Cc1[nH]nc2c1-c1cc(F)c(NC(=O)C(NC(=O)c3ccnn3C(C)C)C3CCC(F)(F)CC3)cc1COCC2 (single isomer, unassigned) [compound 38a] and Cc1[nH]nc2c1-c1cc(F)c(NC(=O)[C@@H](NC(=O)c3ccnn3[C@@H](C)CO)C3CCCCC3)cc1COCC2 [compound 50] cannot be ordered by IC50: no more than 50 nM for the first, 50 to 150 nM for the second.

Cc1[nH]nc2c1-c1cnc(NC(=O)[C@@H](NC(=O)c3ccnn3C(C)C)C(C3CC3)C3CC3)cc1CN(C(C)(C)C(F)(F)F)CC2 [compound 210] and Cc1[nH]nc2c1-c1cnc(NC(=O)[C@@H](NC(=O)c3cnnn3C(C)C)C(C3CC3)C3CC3)cc1CN(C1CC1)CC2 [compound 220] cannot be ordered by IC50: no more than 50 nM for the first, no more than 50 nM for the second.

Cc1[nH]nc2c1-c1cc(F)c(NC(=O)[C@@H](NC(=O)c3ccnn3[C@@H](C)CO)C(C3CC3)C3CC3)cc1COCC2 [compound 55] and Cc1[nH]nc2c1-c1cc(F)c(NC(=O)[C@@H](NC(=O)c3ccnn3C(F)F)C(C3CC3)C3CC3)cc1COCC2 [compound 83] cannot be ordered by IC50: no more than 50 nM for the first, 50 to 150 nM for the second.

Cc1[nH]nc2c1-c1cc(F)c(NC(=O)[C@@H](NC(=O)c3cnnn3C(C)C)C(C3CC3)C3CC3)cc1COCC2 [compound 231] and [2H]C([2H])([2H])n1nccc1C(=O)N[C@H](C(=O)Nc1cc2c(cc1F)-c1c(n[nH]c1C)CCOC2)C(C1CC1)C1CC1 [compound 18] cannot be ordered by IC50: no more than 50 nM for the first, 50 to 150 nM for the second.

Compared with Cn1nccc1C(=O)N[C@H](C(=O)Nc1cc2c(cc1Cl)-c1c[nH]nc1CCOC2)C(C1CC1)C1CC1 [compound 31], Cc1[nH]nc2c1-c1cc(F)c(NC(=O)[C@@H](NC(=O)c3ccnn3C(CF)CF)C(C3CC3)C3CC3)cc1COCC2 [compound 95] is lower in IC50: 150 to 1000 nM for the first, no more than 50 nM for the second. The second is the more potent here.

Cc1[nH]nc2c1-c1cnc(NC(=O)[C@@H](NC(=O)c3ccnn3CCCF)C(C3CC3)C3CC3)cc1CN(C(C)C(F)(F)F)C(=O)C2 (mixture of isomers) [compound 226] and CC(C)=C(F)C(=O)N[C@H](C(=O)Nc1cc2c(cc1F)-c1c(n[nH]c1C)CC(=O)N(C(C)C(F)(F)F)C2)C(C1CC1)C1CC1 (mixture of isomers) [compound 252] cannot be ordered by IC50: no more than 50 nM for the first, no more than 50 nM for the second.

Cc1[nH]nc2c1-c1cc(F)c(NC(=O)[C@@H](NC(=O)c3ccnn3C(C)C)C(C3CC3)C3CC3)cc1CN(C1CCC1)CC2 [compound 177] and Cc1[nH]nc2c1-c1cc(F)c(NC(=O)[C@@H](NC(=O)c3ccnn3C(C)C)C(C3CC3)C3CC3)cc1C/C=C\C2 [compound 129] cannot be ordered by IC50: no more than 50 nM for the first, no more than 50 nM for the second.

Cc1[nH]nc2c1-c1cc(F)c(NC(=O)[C@@H](NC(=O)c3ccnc(CC(F)(F)F)c3)C(C3CC3)C3CC3)cc1COCC2 [compound 109] was tested, and the IC50 was 50 to 150 nM.
